Measured values published in patent US10597388B2, “Pyridazinone herbicides” (FMC CORPORATION, priority 2014, dated 2020).

What was measured:
Format in all cases: in vivo
[1] = test system: johnsongrass (Sorghum halepense); assay: Test C greenhouse herbicide test, pre- and postemergence
Source text: (§1) Seeds of plant species selected from blackgrass (Alopecurus myosuroides), ryegrass, Italian (Italian ryegrass, Lolium multiflorum), wheat (winter wheat, Triticum aestivum), galium (catchweed bedstraw, Galium aparine), corn (Zea mays), large crabgrass, large (large crabgrass, Digitaria sanguinalis), foxtail, giant (giant foxtail, Setaria faberii), johnsongrass (Sorghum halepense), lambsquarters (Chenopodium album), morningglory (Ipomoea coccinea), nutsedge, yellow (yellow nutsedge, Cyperus esculentus), pigweed (Amaranthus retroflexus), ragweed (common ragweed, Ambrosia elatior), soybean (Glycine max), barnyardgrass (Echinochloa crus-galli), oilseed rape (Brassica napus), waterhemp (common waterhemp, Amaranthus rudis), and velvetleaf (Abutilon theophrasti) were planted into a blend of loam soil and sand and treated preemergence with test chemicals formulated in a non-phytotoxic solvent mixture which included a surfactant.
(§2) At the same time, plants selected from these crop and weed species and also chickweed (common chickweed, Stellaria media), kochia (Kochia scoparia), and oat, wild (wild oat, Avena fatua), were planted in pots containing Redi-Earth® planting medium (Scotts Company, 14111 Scottslawn Road, Marysville, Ohio 43041) comprising spaghnum peat moss, vermiculite, wetting agent and starter nutrients and treated with postemergence applications of test chemicals formulated in the same manner. Plants ranged in height from 2 to 18 cm (1- to 4-leaf stage) for postemergence treatments. Treated plants and controls were maintained in a greenhouse for 13 to 15 d, after which time all species were compared to controls and visually evaluated. Plant response ratings, summarized in Table C, are based on a scale of 0 to 100 where 0 is no effect and 100 is complete control. A dash (-) response means no test result.

[2] = test system: barnyardgrass (Echinochloa crus-galli); assay: as above
Source text: as §1, §2

[3] = test system: morningglory (Ipomoea coccinea); assay: as above
Source text: as §1, §2

[4] = test system: waterhemp (common waterhemp, Amaranthus rudis); assay: as above
Source text: as §1, §2

[5] = test system: crabgrass, large (large crabgrass, Digitaria sanguinalis); assay: as above
Source text: as §1, §2

[6] = test system: wheat (winter wheat, Triticum aestivum); assay: as above
Source text: as §1, §2

[7] = test system: galium (catchweed bedstraw, Galium aparine); assay: as above
Source text: as §1, §2

[8] = test system: pigweed (Amaranthus retroflexus); assay: as above
Source text: as §1, §2

[9] = test system: ragweed (common ragweed, Ambrosia elatior); assay: as above
Source text: as §1, §2

[10] = test system: velvetleaf (Abutilon theophrasti); assay: as above
Source text: as §1, §2

[11] = test system: blackgrass (Alopecurus myosuroides); assay: as above
Source text: as §1, §2

corn (Zea mays) = assay: as above
Source text: as §1, §2

[12] = test system: foxtail, giant (giant foxtail, Setaria faberii); assay: as above
Source text: as §1, §2

soybean (Glycine max) = assay: as above
Source text: as §1, §2

[13] = test system: oilseed rape (Brassica napus); assay: as above
Source text: as §1, §2

[14] = test system: oat, wild (wild oat, Avena fatua); assay: Test C greenhouse herbicide test, postemergence
Summary of the method: (§3)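 Seedlings are raised in pots of peat moss–vermiculite medium with starter nutrients, then receive postemergence test chemical at the 1- to 4-leaf stage. They are kept in the greenhouse 13 to 15 d and scored visually versus controls, 0 meaning no effect and 100 complete control.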

kochia (Kochia scoparia) = assay: Test C greenhouse herbicide test, postemergence
Summary of the method: as §3

[15] = Postemergence, 31 g ai/ha, 0 to 100 scale (0 no effect, 100 complete control)
[16] = Postemergence, 125 g ai/ha, scale 0 to 100, 0 is no effect, 100 is complete control
[17] = Postemergence, 250 g ai/ha, scale 0 to 100, 0 no effect, 100 complete control, 13 to 15 d
[18] = postemergence, 62 g ai/ha, scale 0 to 100, 0 no effect, 100 complete control

COc1nn(C)c(=O)c(-c2c(C)sc3ccccc23)c1O [Compound 33]
Johnsongrass plant response rating [1, 15]: 0 | Plant response rating, Johnsongrass [1, 16]: 5 | Plant response rating, Johnsongrass [1, 17]: 40 | Johnsongrass plant response rating [1, 18]: 5 | Barnyardgrass plant response rating [2, 15]: 25 | Plant response rating, Barnyardgrass [2, 16]: 50 | Plant response rating, Barnyardgrass [2, 17]: 80 | Barnyardgrass plant response rating [2, 18]: 25 | Morningglory plant response rating [3, 15]: 85 | Plant response rating, Morningglory [3, 16]: 95 | Plant response rating, Morningglory [3, 17]: 98 | Morningglory plant response rating [3, 18]: 95 | Waterhemp plant response rating [4, 15]: 25 | Plant response rating, Waterhemp [4, 16]: 65 | Plant response rating, Waterhemp [4, 17]: 75 | Waterhemp plant response rating [4, 18]: 30 | Crabgrass, Large plant response rating [5, 15]: 10 | Plant response rating, Crabgrass, Large [5, 16]: 20 | Plant response rating, Crabgrass, Large [5, 17]: 25 | Crabgrass, Large plant response rating [5, 18]: 20 | Wheat plant response rating [6, 15]: 0 | Plant response rating, Wheat [6, 16]: 0 | Plant response rating, Wheat [6, 17]: 0 | Wheat plant response rating [6, 18]: 0 | Galium plant response rating [7, 15]: 90 | Plant response rating, Galium [7, 16]: 95 | Plant response rating, Galium [7, 17]: 95 | Galium plant response rating [7, 18]: 90 | Pigweed plant response rating [8, 15]: 30 | Plant response rating, Pigweed [8, 16]: 65 | Plant response rating, Pigweed [8, 17]: 80 | Pigweed plant response rating [8, 18]: 50 | Ragweed plant response rating [9, 15]: 85 | Plant response rating, Ragweed [9, 16]: 90 | Plant response rating, Ragweed [9, 17]: 98 | Ragweed plant response rating [9, 18]: 95 | Velvetleaf plant response rating [10, 15]: 10 | Plant response rating, Velvetleaf [10, 16]: 75 | Plant response rating, Velvetleaf [10, 17]: 85 | Velvetleaf plant response rating [10, 18]: 60 | Blackgrass plant response rating [11, 15]: 0 | Plant response rating, Blackgrass [11, 16]: 5 | Plant response rating, Blackgrass [11, 17]: 10 | Blackgrass plant response rating [11, 18]: 0 | Corn plant response rating (corn (Zea mays); [15]): 0 | Plant response rating, Corn (corn (Zea mays); [16]): 5 | Plant response rating, Corn (corn (Zea mays); [17]): 20 | Corn plant response rating (corn (Zea mays); [18]): 5 | Foxtail, Giant plant response rating [12, 15]: 20 | Plant response rating, Foxtail, Giant [12, 16]: 60 | Plant response rating, Foxtail, Giant [12, 17]: 70 | Foxtail, Giant plant response rating [12, 18]: 40 | Soybean plant response rating (soybean (Glycine max); [15]): 0 | Plant response rating, Soybean (soybean (Glycine max); [16]): 0 | Plant response rating, Soybean (soybean (Glycine max); [17]): 0 | Soybean plant response rating (soybean (Glycine max); [18]): 0 | Oilseed Rape plant response rating [13, 15]: 40 | Plant response rating, Oilseed Rape [13, 16]: 30 | Plant response rating, Oilseed Rape [13, 17]: 50 | Oilseed Rape plant response rating [13, 18]: 55 | Oat, Wild plant response rating [14, 15]: 35 | Plant response rating, Oat, Wild [14, 16]: 40 | Plant response rating, Oat, Wild [14, 17]: 45 | Oat, Wild plant response rating [14, 18]: 30 | Kochia plant response rating (kochia (Kochia scoparia); [15]): 20 | Plant response rating, Kochia (kochia (Kochia scoparia); [16]): 40 | Plant response rating, Kochia (kochia (Kochia scoparia); [17]): 50 | Kochia plant response rating (kochia (Kochia scoparia); [18]): 5
